≈ marks a conversion by molar mass, not a printed value.
Columns and labels:
[1] = test system: Lactobacillus plantarum Inducia DSM 21379; assay: Antibiotic resistance, E-test MIC; type: cell-based; conditions: for MIC: Lactiplantibacillus plantarum, DSM21379, read-out: MIC (minimal inhibitory concentration); for MIC (minimal inhibitory concentration): E-test strips, L. plantarum Inducia DSM 21379
Experimental: Method. Lactobacillus plantarum Inducia DSM 21379 was tested using antibiotic strips of the E-test (AB Biodisk, Solna).

[2] = test system: Control strain L. plantarum DSM 21380; assay: Antibiotic resistance, E-test MIC, control strain; type: cell-based, Lactobacillus plantarum; conditions: for MIC: Lactiplantibacillus plantarum, DSM21380, E-test strips, read-out: MIC (minimal inhibitory concentration); for MIC (minimal inhibitory concentration): E-test strips
[3] = in vivo, po; cited from earlier work

| Molecule | MIC [1] [µg/mL] | MIC [2] [µg/mL] | MIC (minimal inhibitory concentration) [1] [µg/mL] | MIC (minimal inhibitory concentration) [2] [µg/mL] | consumed amount absorbed from intestine into bloodstream [3] [%] |
| --- | --- | --- | --- | --- | --- |
| CC1(C)S[C@@H]2[C@H](NC(=O)[C@H](N)c3ccccc3)C(=O)N2[C@H]1C(=O)O [Ampicillin] | 0.19 (≈ 0.544 µM) | 0.25 (≈ 0.715 µM) |  |  |  |
| O=C(N[C@H](CO)[C@H](O)c1ccc([N+](=O)[O-])cc1)C(Cl)Cl [Chloramphenicol] | 2 (≈ 6.19 µM) | 2 (≈ 6.19 µM) |  |  |  |
| CCC[C@@H]1C[C@@H](C(=O)N[C@@H]([C@H]2O[C@H](SC)[C@H](O)[C@@H](O)[C@H]2O)[C@H](C)Cl)N(C)C1 [Clindamycin] | 0.016 (≈ 0.0376 µM) | 0.032 (≈ 0.0753 µM) |  |  |  |
| CC[C@H]1OC(=O)[C@H](C)[C@@H](O[C@H]2C[C@@](C)(OC)[C@@H](O)[C@H](C)O2)[C@H](C)[C@@H](O[C@@H]2O[C@H](C)C[C@H](N(C)C)[C@H]2O)[C@](C)(O)C[C@@H](C)C(=O)[C@H](C)[C@@H](O)[C@]1(C)O [Erytromycin] |  |  | 0.25 (≈ 0.341 µM) | 0.19 (≈ 0.259 µM) |  |
| NCCCCN [Putrescine] |  |  |  |  | 20 |
| [H]/N=C(/N)N[C@H]1[C@H](O)[C@@H](O)[C@H](O[C@@H]2O[C@@H](C)[C@](O)(C=O)[C@H]2O[C@@H]2O[C@@H](CO)[C@H](O)[C@@H](O)[C@@H]2NC)[C@@H](N/C(N)=N\[H])[C@@H]1O [Streptomycin] | 6 (≈ 10.3 µM) | 16 (≈ 27.5 µM) |  |  |  |
| CN(C)[C@@H]1C(O)=C(C(N)=O)C(=O)[C@@]2(O)C(O)=C3C(=O)c4c(O)cccc4[C@@](C)(O)[C@H]3C[C@@H]12 [Tetracycline] | 6 (≈ 13.5 µM) | 8 (≈ 18 µM) |  |  |  |
| Cipro/ofloxacin |  |  | 32 | 32 |  |
| Gentamicin |  |  | 1 | 1.5 |  |

— US20110274789A1, “ISOLATED LACTOBACILLUS PLANTARUM STRAIN INDUCIA DSM 21379 AS PROBIOTIC THAT ENHANCES NATURAL IMMUNITY AND FOOD PRODUCTS AND MEDICINAL PREPARATIONS COMPRISING IT” (priority 2008, published 2011)
